Measured values from patent US20100048671A1, “INHIBITION OF THE 44 KILODALTON ISOFORM OF PIM-1 KINASE RESTORES APOPTOSIS INDUCED BY CHEMOTHERAPEUTIC DRUGS IN CANCER CELLS” (priority 2005, published 2010).
Where two headings read alike, the source gives them in different places.

Assays:
Assay type in all cases: cell-based, human
[1] = tested on: Pim-1L; assay: Threonine phosphorylation of endogenous BCRP after Pim-1 siRNA (immunoprecipitation with anti-BCRP, immunoblotting with anti-phosphothreonine); conditions: MCF7/MX cells; lenti-virus encoded siRNA vs vector control
Description: MCF7-MX cell lysates infected with lenti-virus encoding Vector control and Pim-1 SiRNA(SiPim-1) were subjected to immunoprecipitation with monoclonal BCRP antibody, followed by immunoblotting with anti-phosphothreonine (αpThr).
(§1) The phosphorylation of BCRP is therapeutically significant because it […] BCRP from causing resistance to chemotherapeutic agents. […] Downregulating Pim-1L expression by a specific siRNA also sensitized the prostate cancer cell line CWR-R1 to apoptosis induced by the chemotherapeutic agents mitoxantrone, topotecan and docetaxel (FIG. 12). The siRNA target sequence for inhibiting Pim-1L expression used to inhibit Pim-1L expression is sequence is: 5′ GCAGGACAGUGCUUGAUAC 3′ identified as SEQ ID NO. 3, as is described in a previous study (29, the entire contents of which is hereby incorporated by reference as if fully set forth herein). This siRNA is targeted at nucleotides 1540-1558 of SEQ ID NO. 1.
The transfected cells were lysed in the buffer (20 mM TrisHCl pH 7.4, 150 mM NaCl, 1 mM EDTA, 1 mM EGTA, 1% Triton X-100, 1 mM Na3VO4, 1 mg/ml aprotinin, 1 mg/ml leupterin and 1 mM PMSF). Insoluble material was removed by centrifugation, and antibodies were added to lysates and incubated for 1-3 hour at 4° C. […]

[2] = tested on: CWR-R1 cells; assay: Drug sensitivity (WST-1) of CWR-R1 cells infected with lenti-virus encoding Pim-1 SiRNA; conditions: mitoxantrone (2 μM), topotecan (5 μM) or docetaxel (50 nM), 2 days
Protocol: FIG. 12A: CWR-R1 cells infected with lenti-virus encoding vector control and Pim-1 SiRNA were treated with MX (2 μM), TPT (5 μM) or DTX (50 nM), respectively for 2 days. Cell viability was determined using the WST-1 assay. FIG. 12B: immunoprecipitation performed by using anti-BCRP.
as §1

[3] = tested on: LNCaP cells over-expressing BCRP; assay: Drug sensitivity (WST-1) of LNCaP cells over-expressing BCRP infected with lenti-virus encoding Pim-1 SiRNA; conditions: MX (0.5 μM) or TPT (0.1 μM), 2 days
Protocol: FIG. 13A: LNCaP cells infected with lenti-virus encoding vector control, BCRP, Pim-1SiRNA or both were treated with the indicated drugs MX (0.5 μM) or TPT (0.1 μM) for 2 days. Cell viability was determined using the WST-1 assay FIG. 13B: Immunoprecipitation was performed by using anti-BCRP.

[4] = tested on: MCF7-MX cells; assay: Drug sensitivity (WST-1) of MCF7-MX cells infected with lenti-virus encoding Pim-1 SiRNA; conditions: Flavopiridol (15 μM) or DTX (50 μM), 2 days
Protocol: FIG. 11A: MCF7-MX cells infected with lenti-virus encoding vector control and Pim-1 SiRNA were treated with Flavopiridol (15 μM) or DTX (50 μM) as indicated for 2 days. Cell viability was determined using the WST-1 assay. P<0.05 FIG. 11B: expression levels of Pim-1, BCRP and actin analyzed by immunoblotting with the respective antibodies.
as §1

[5] = tested on: LNCaP cells; assay: Induction of Pim-1 expression by IL-6 (immunoblotting with monoclonal anti-Pim-1 antibody); conditions: serum starved LNCaP cells; 25 ngml IL-6, 24 hour, 37 degrees
Description: FIG. 1A: Induction of Pim-1 expression by IL-6 in LNCaP cells. FIG. 1B: The effects of neutralizing antibody against IL-6 on the protein level of Pim-1 in PC3 cells. FIG. 1C: Expression of the two isoforms of Pim-1 by the EST clones in transfected LNCaP, 22Rv1 and PC3 cells FIG. 1D: The N-terminal unique sequence in human 44 kD Pim-1. Part of the sequence of the 5′ end of Pim-1 cDNA in the EST clones is shown. The putative alternative translation initiation site CUG and the start codon AUG are in boldface. FIG. 1E: Alignment of the unique N-terminal sequence in the 44 kD Pim-1 from human and mouse origins. Proline-rich motifs are underlined and bold. The translation initiation sites of the two isoforms are shown by arrows.
Induction of Pim-1 expression by IL-6 was assessed in serum starved LNCaP cells that were treated with 25 ngml IL-6 for 24 hour at 37 degrees. The level of Pim-1 protein was examined by immunoblotting with a monoclonal anti-Pim-1 antibody (Top). The same blot was then probed with anti-actin to monitor the sample loading (Bottom). […] One embodiment of the present invention is directed to the isolated human 44 kD isoform identified by SEQ ID NO. 4 or a functional equivalent or variant thereof and its use in screening assays. We are the first to isolate and describe the gene for the 44 kD isoforms identified in SEQ ID NO. […]

[6] = tested on: LNCaP cells; assay: Drug sensitivity assay (WST-1 cell viability) of lenti-virus infected LNCaP cells treated with doxorubicin; conditions: for viability at 0.1 µg/mL: Homo sapiens, LNCaP, read-out: cells remained viable
Protocol: FIG. 5A: LNCaP cells infected with lenti-virus encoding Flag-Pim-1S, Pim-1L, Pim-1LKM (kinase-deficient mutant) or vector control were treated with doxorubicin (0.1 ug/ml) for the times as indicated. Cell viability was determined by the WST-1 assay. The data were expressed as the mean of triplicates of the doxorubicin-treated samples relative to the untreated controls. * p<0.01 compared with the vector control. The expression of the Pim-1 proteins encoded by the lenti-viruses was determined by immunoblotting with anti-Flag antibody. […] The response to doxorubicin was determined at 20 hour as above. * p<0.01 compared with the vector control; ** p<0.01 compared with Pim-1L alone. Expression of Flag-Pim-1L and T7-EtkKQ was monitored by immunoblotting with anti-Flag and anti-T7 antibody, respectively. FIG. 5C: LNCaP cells infected with the lenti-viruses encoding the indicated proteins as in 5A were treated with 10-100 nM mitoxantrone for 48 h; cell viability was determined as in 5A. * p<0.01 compared with the vector control. FIG. 5D: Etk mediates Pim-1L-induced resistance to mitoxantrone. LNCaP cell were infected with the lenti-viruses and the mitoxatrone response was determined. * p<0.01 compared with the vector control; ** p<0.01 compared with Pim-1L alone. […] LNCaP cells were transfected with the plasmids as indicated. The association of Etk with p53 was determined by immunoprecipitation with anti-p53 and followed by immunoblotting with anti-T7 antibody. The expression of p53, Etk or Pim-1 in these cells was monitored by immunoblotting with anti-p53, anti-T7 and anti-Flag antibody, respectively.
An increase of Etk activity confers drug resistance to apoptosis caused by chemotherapeutic agents in LNCaP cells (20), including doxorubicin and cisplatin. By contrast, P53 binding to Etk decreases Etk activity permits apoptosis. However, the mechanism by which Etk is activated was not known. […] As is shown in FIG. 5A, treatment of LNCaP cells with doxorubicin induced rapid apoptosis as was expected. […] Over-expression of Pim-1S conferred some initial protection against drug-induced apoptosis with about 80% cell survival at 20 h. However, such protection was not sustained until 40 hours. […] In this experiment, LNCaP cells were infected with Lenti-virus encoding Flag-Pim-1 S, Pim-1L, Pim-1LKM (kinase-deficient mutant) or vector control for 24h.
LNCaP cells were infected with the lentiviruses encoding the proteins as indicated by using the protocol described previously (19). At 48 hour post-infection, the cells were seeded into the 96 well plates (3×10^4/well). Doxorubicin or mitoxantrone was added in the medium after 24 h. The effects of doxorubicin on the viability of cells were measured after 20-48 hour by the WST-1 assay (Roche Molecular Biochemicals). The viability rates are expressed as means±SD of the triplicate for each experiment. An aliquot of cells was lysed and followed by immunoblotting with anti-T7 or anti-Flag to monitor the transfection efficiency.

For “5′ GCAGGACAGUGCUUGAUAC 3′ (lentivirus encoded, further chemistry not given here; listed as Homo sapiens) [siRNA, 1, lenti-virus encoded]”, the “phosphorylation of BCRP” value [1] was “significantly reduced”, the “sensitivity to apoptosis induced by chemotherapeutic agents” value [2] was “sensitized” and the “BCRP-mediated resistance to mitoxantrone and topotecan” value [3] was “able to reduce or compromise BCRP-mediated resistance”. For the same compound, the BCRP-mediated drug resistance [4] was “inhibited BCRP-mediated drug resistance”.
For “IL-6: interleukin 6, cytokine used to induce Pim-1 expression”, the “expression of the 44 kD Pim-1 protein” value [5] was “induced”.
`COc1cccc2c1C(=O)c1c(O)c3c(c(O)c1C2=O)C[C@@](O)(C(=O)CO)C[C@@H]3O[C@H]1C[C@H](N)[C@H](O)[C@H](C)O1` [doxorubicin] was tested, and the viability at 0.1 µg/mL ([6]; 20 h) was ~50%, the viability at 0.1 µg/mL ([6]; 40 h) was > 70% and the apoptotic cells detected ([6]; LNCaP cells expressing Pim-1L, doxorubicin 0.1 ug/ml, 20 hours post-treatment) was “Virtually no apoptotic cells were detected”. The cells that survived ([6]; LNCaP cells expressing the empty vector or kinase-inactive Pim-1LKM, doxorubicin 0.1 ug/ml, 40 hour treatment) was 20% and the cell survival ([6]; LNCaP cells over-expressing Pim-1S, doxorubicin 0.1 ug/ml, 20 h) was “about 80%”.
